Assay results published in PMC5382548 (Scientific Reports, 2015).

Legend:
[1] = test system: UTR-2 G4 in the 5′UTR of KRAS mRNA; test: FRET melting assay, UTR-2 RNA G4; type: binding; conditions: G4 0.2 μM, ligand 1 μM
Method: (§1) Two compounds 2d and 3e were selected and evaluated for their ability to stabilize the 32-mer sequence in the NHE of the human KRAS promoter (KRAS32R)[12], two G4 motifs in the 5′UTR of KRAS mRNA (UTR-1 and UTR-2)[24] and a 21-mer DNA G4 from the human telomeric sequence (F21T). The KRAS32R sequence has been described as forming two G4 structures which exist in equilibrium. One sequence folds into a G4 (Q1) with a Tm of ~55°C that is disrupted on increasing the temperature and then, the full-length 32-mer sequence folds into a new G4 (Q2, Tm of ~72°C)[13]. In our assay, the KRAS32R sequence (in the presence or absence of IQcs) folded in a single G4 structure (Tm ≈ 54°C), as shown by the single inflection for the first derivative of the FRET melting data (Sup. Inf.; Figure S4). This monophasic behaviour was also observed in the presence of TMPyP4[13].
(§2) Oligonucleotide sequences were purchased from Eurofins MWG Synthesis GmbH, Germany or STAB VIDA Genomics Lab, Caparica, Lisbon, Portugal. […]
(§3) The ability of indolo[3,2-c]quinolines to stabilize DNA sequences was investigated using a Fluorescence Resonance Energy Transfer (FRET) assay as reported elsewhere.

KRAS32R G4 = test: FRET melting assay, KRAS32R G4; type: binding, human; conditions: G4 0.2 μM, ligand 1 μM
Method: as §1, §2, §3

[2] = test system: KRAS32R (DNA, G4) AGGGCGGTGTGGGAAGAGGGAAGAGGGGGAGG; test: FRET melting; conditions: 60 mM K+; K-cacodylate pH 7.4; 0.2 μM DNA, 1 μM compound; SD ≤ 0.2
KRAS mRNA in SW620 cells = test: KRAS mRNA steady-state levels, Taqman real-time RT-PCR, SW620; type: cell-based, human; conditions: equitoxic (IC50) concentrations, 72 h
Method: The effects of compounds on KRAS transcription in colon cancer cells (HCT116 and SW620) were evaluated by quantifying KRAS mRNA steady-state levels using Taqman real-time RT-PCR.
(a) KRAS mRNA steady-state expression was evaluated by Taqman Real-time RT-PCR using specific Taqman Assays for KRAS and β-Actin for normalization. KRAS mRNA steady-state expression levels were calculated by the ΔΔCt method, using DMSO (vehicle control) for calibration; and (b) KRAS protein steady-state expression evaluated by immunoblot relative to control (DMSO vehicle) Results are expressed as mean ± SEM of at least three independent experiments; *p < 0.05 and §p < 0.01 from DMSO (vehicle control). […]
Taqman Real-time PCR reactions were performed using 1.5 µg of total RNA, using High Capacity RNA to cDNA kit, according to the manufacturer`s instruction. […] The comparative threshold cycle method was used to calculate the amplification factor, where the threshold cycle (Ct) is defined as the cycle number at which the fluorescence passes the fixed threshold intensity level. KRAS expression levels in different samples were calculated on the basis of ΔΔCt method. […]
Hoechst labeling of cells was used to detect apoptotic nuclei by evaluation of nuclear morphology under fluorescence microscopy. […] Fluorescent nuclei were scored and categorized according to the condensation and staining characteristics of […]

[3] = test system: UTR-2 (RNA, G4) UGUGGGAGGGGCGGGUCUGGG; test: FRET melting; conditions: 60 mM K+; K-cacodylate pH 7.4; 0.2 μM RNA, 1 μM compound; SD ≤ 0.2

Structure (SMILES)	ΔTm UTR-2 [1] [°C]	ΔTm KRAS32R (KRAS32R G4) [°C]	ΔTm [2] [°C]	Reduction of KRAS mRNA steady-state levels, SW620 (KRAS mRNA in SW620 cells) [%]	ΔTm [3] [°C]
CCN(CC)CCCNc1ccc2c(c1)c1[nH]c3ccccc3c1c[n+]2C [2d]	2.0	10.7	10.7	90	2.0
CCN(CC)CCCNc1ccc2c(c1)[nH]c1c2c[n+](C)c2ccc(NCCCN(CC)CC)cc12.[Cl-] [3e]	9.9	17.0	17.0	–	9.9
CCN(CC)CCCNc1ccc2[nH]c3c(c[n+](C)c4ccc(NCCCN(CC)CC)cc34)c2c1.[Cl-] [3d]	–	–	–	25	–
